Experimental data published in patent US20220400680A1, “USE OF ACYLCYANAMIDES OR SALTS THEREOF FOR REGULATING PLANT GROWTH” (Alzchem Trostberg GmbH, priority 2019, published 2022).

Columns and labels:
[1] = system: table grapes type Red Globe; experiment: Field test E2 table grapes Spain, bud burst; design: species or system Vitis vinifera; details: in vivo
Description: Three sections of a table grape plantation in southern Spain (type Red Globe) were treated with the following spray mixtures during the dormancy phase 45 days before natural bud burst (February 5):
E2-0: 600 liters per hectare of water with an addition of 0.1% Break-Thru® OE-446 E2-1: 600 liters per hectare of the spray mixture from example D-1 E2-18: 600 liters per hectare of the spray mixture from example D-18
(§1) As a result, the grapevine sprouts were evenly wetted.
On April 3, bud burst was recorded numerically.
(§2) Budding means number of buds that have developed at least one leaf after n days, based on the total number of buds on the sprouts at time n=0 days (day of application of spray mixture).

[2] = system: table grapes types Bordon AR and Hammar AR; experiment: Field test E3 table grapes India, bud burst; design: species or system Vitis vinifera; details: in vivo
Description: Three sections of a table grape plantation in India with types Bordon AR and Hammar AR were treated with the following spray mixtures during the dormancy phase:
E3-0: 600 liters per hectare of water with an addition of 0.1% Break-Thru® OE-446 E3-1: 600 liters per hectare of the spray mixture from example D-1 E3-18: 600 liters per hectare of the spray mixture from example D-18
as §1
After 30 and 45 days, respectively, bud burst was recorded numerically.
as §2

[3] = system: Table apple, type Boiken apple (C1); experiment: Greenhouse test, cut apple branches C1 dipped in test solution, bud development stage; format: in vivo, Malus domestica; design: key to Bud development stage, apple branches C1: Stage 0: Buds unchanged; Stage 1: Buds slightly swollen, first green tips visible; Stage 2: strongly swollen, green buds; Stage 3: Buds before breaking open, leaf or flower root already visible; Stage 4: Flower buds fully developed, but still closed, white petals already visible. In the case of the grapevine, stage 4 was the unfolding of the first leaves; Stage 5: Flowers fully open or, in the case of grapevine, unfolding of the flower roots (“Gescheine”) on the fully leafed sprouts
Summary of the method: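 Cut Boiken apple branches kept in water jars in a greenhouse at about 22 °C under natural light and dipped in test solution. Solutions contained 0.15 mol test substance (0.075 mol for bis-cyanamides) plus 0.15 g BreakThru OE-446 per 500 g water. Bud development scored on a stage scale up to full flowering.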

[4] = system: Table apple, type Zabergäu-Renette (C2); experiment: Greenhouse test, cut apple branches C2 dipped in test solution, bud development stage; format: in vivo, Malus domestica; design: key to Bud development stage, apple branches C2: Stage 0: Buds unchanged; Stage 1: Buds slightly swollen, first green tips visible; Stage 2: strongly swollen, green buds; Stage 3: Buds before breaking open, leaf or flower root already visible; Stage 4: Flower buds fully developed, but still closed, white petals already visible. In the case of the grapevine, stage 4 was the unfolding of the first leaves; Stage 5: Flowers fully open or, in the case of grapevine, unfolding of the flower roots (“Gescheine”) on the fully leafed sprouts
Summary of the method: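 Cut branches held in water jars in a greenhouse at about 22° C. under natural light after dipping in aqueous test solution: 0.15 mol substance (0.075 mol for bis-cyanamides) plus 0.15 g BreakThru OE-446 per 500 g. Bud development scored on a stage scale from closed buds to fully open flowers.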

[5] = T1 (14 d), 0.15 mol (A-14, A-15: 0.075 mol) per 500 g solution
[6] = stage 4 reached or exceeded after 36 days vs negative control

With `CC(=O)NC#N.[Na]` [Example A-1, Sodium Acetylcyanamide] the “Effectiveness compared with prior art treatment with cyanamide” value [1] was “as effective as the prior art treatment with cyanamide”, the “Effectiveness compared with prior art treatment with cyanamide” value [2] was “at least as effective as the prior art treatment with cyanamide” and the “Bud development stage, apple branches C1” value [3, 5] was 0. The “Bud development stage, apple branches C1” value ([3]; T2 (16 d)) was 0, the “Bud development stage, apple branches C1” value ([3]; T3 (21 d)) was 2 and the “Bud development stage, apple branches C1” value ([3]; T4 (27 d)) was 3. For the same compound, the “Bud development stage, apple branches C1” value ([3]; T5 (36 d)) was 5, the “Bud development stage, apple branches C1” value ([3]; T6 (56 d)) was 5 and the “Dormancy-breaking effect according to the definition, apple C1” value [3, 6] was “dormancy-breaking effect”. The “Bud development stage, apple branches C2” value [4, 5] was 0, the “Bud development stage, apple branches C2” value ([4]; T2 (16 d)) was 0 and the “Bud development stage, apple branches C2” value ([4]; T3 (21 d)) was 1. For the same compound, the “Bud development stage, apple branches C2” value ([4]; T4 (27 d)) was 3, the “Bud development stage, apple branches C2” value ([4]; T5 (36 d)) was 5 and the “Bud development stage, apple branches C2” value ([4]; T6 (56 d)) was 5. The “Dormancy-breaking effect according to the definition, apple C2” value [4, 6] was “dormancy-breaking effect”.
